{
  "source": "patent US5326898A",
  "about": "“Substituted phenylethenyl compounds having retinoid-like biological activity” (Allergan, Inc., priority 1992, dated 1994)",
  "origin": "cited, not measured here",
  "test_system": "ornithine decarboxylase (ODC)",
  "conditions": "qualitative; background statement on retinoic acid",
  "data": [
    {"smiles": "CC1=C(/C=C/C(C)=C/C=C/C(C)=C/C(=O)O)C(C)(C)CCC1", "note": "[Retinoic acid]", "values": [
      {"measurement": "inhibition of induction of ODC activity by TPA", "result": "inhibits"}
    ]}
  ]
}
